Reference: patent EP2213288A1 (Welte, Karl, priority 2009, dated 2010)

Columns and labels:
[1] = tested on: CD34^+ bone marrow progenitor cells from healthy individuals; assay: Granulocytic/myeloid differentiation of cultured CD34+ cells from healthy individuals (FACS, qRT-PCR, ELISA, NAD+ measurement); assay type: cell-based, human; conditions: FACS analysis; nicotinamide 1 mM or 10 mM; lentiviral transduction MOI 1-2
Description: Bone marrow and peripheral blood mononuclear cells were isolated by Ficoll-Hypaque gradient centrifugation (Amersham Biosciences) and positively selected bone marrow CD34^+ and CD33^+ cells by sequential immunomagnetic labeling with corresponding magnetic cell-sorting beads (Miltenyi Biotech). Peripheral blood PMNs were isolated by Ficoll-Hypaque gradient centrifugation and by subsequent hypotonic lysis of erythrocytes in cell pellet, Cells were counted and viability was assessed by trypan blue dye exclusion. The purity of sorted CD34^+ cells, CD33^+ cells and PMNs was more than 96% as assessed by FACS analysis and by staining with May-Grünwald-Giemsa.
Purified PMNs and CD33^+ cells were cultured in RPMI-1640 medium supplemented with 1% heat-inactivated autologous human serum with or without addition of 10 ng ml^-1 of recombinant human G-CSF (rhG-CSF) (Cell Systems Biotechnology). […] For assessment of G-CSFR protein expression cells were stained with unconjugated antibody to mouse G-CSFR and secondary FITC-conjugated antibody and measured G-CSFR expression by FACS. […] G-CSF protein was measured by G-CSF-specific ELISA from R&D Systems and NAMPT protein by NAMPT specific carboxy-terminal enzyme immunometric assay (Phoenix Pharmaceuticals).

[2] = Treatment of healthy individuals with vitamin B3, blood cell analysis; assay type: in vivo, human
[3] = 25-50 mg kg^-1 d^-1, subjects with type 1 diabetes; cited from earlier work
CD34^+ cells = assay: NAMPT inhibition (FK866) or G-CSFR knock-down in G-CSF- or NAMPT-stimulated CD34+ cells
Excerpt: NAMPT is induced by G-CSF, so it was further analyzed whether this enzyme is required for G-CSF-triggered granulopoiesis.
DNA oligonucleotides corresponding to position 642 bp to 660 bp of the human CSF3R gene sequence were chemically synthesized. These nucleotides also contained overhang sequences from a 5' BglII- and a 3'HindIII- restriction sites. The numbering of the first nucleotide of the shRNAs refers to the ATG start codon. The oligonucleotide sequences was as follows […] (Seq. ID No. 3). The oligonucleotides were inserted into the BglII/HindIII-digested pSUPER-derived plasmid to generate pSUPER-CSF3R_642 and verified the isolated clone by DNA sequencing. To generate lentiviral transgenic plasmids containing shRNA expression cassettes located in the U3 region of the […]3'-LTR pRRL,PPT.SF.DsRedEx.pre was used. pRRL.PPT.SF.DsRedEx.pre is a derivative of the standard lentiviral vector pRRL.PPT.PGK, DsRedEx.pre (kindly provided by Luigi Naldini, Milano, Italy) using an internal SFFV promoter. To generate the lentiviral CSF3R_642-SR plasmid, the pSUPER-CSF3R_642 was digested with SmaI and HincII and ligated the resulting DNA fragments (360 bp) into the SnaBI site of the pRRL.PPT.SF.DsRedEx,pre. The lentiviral plasmid encodes RFPEXPRESS as reporter gene.

[4] = tested on: promyelocytic leukemia cell line HL-60; assay: Myeloid differentiation of HL-60 cells
Description: Granulocytic differentiation was characterized by FACS analysis of cells stained with antibody specific to CD16 (Immunotools), CD15 (BD Pharmigen) or CD11b (BD Pharmigen) and by morphological assessment of Wright-Giemsa-stained cytospin slides. […] We cultured HL-60 cells in the presence of 10 ng ml^-1 human rhG-CSF(Cell systems Biotechnoogy), 10 ng ml^-1 human rhNAMPT (Phoenix Pharmaceuticals) or 0.1µM ATRA (Sigma). For the measurement of NAD^+, 0.5 M ice-cold HClO4 was added to the cells, or cell culture supernatants or plasma; after 2 min, 100µl of supernatants was collected by centrifugation at 3,000g for 5 min, was 20µl K2HPO4 (1 M) added with cooling on ice and adjusted pH to 7.2-7.4 with KOH. 50µl of supernatant was given to the reaction mixture containing 0.1 M sodiumpyrophosphate-semicarbazid (Sigma) (pH 8.8), absolute ethanol and dH2O, NAD^+ spectrophotometrically was assessed at 339 nm at room temperature (25°C) as as mean difference in absorbance before (A1) and 6 min after (A2) addition of alcohol dehydrogenase (Roche).

NC(=O)c1cccnc1 [vitamin B3, nicotinamide]
myeloid differentiation of CD34^+ cells [1]: induced myeloid differentiation of CD34^+ cells in a dose-dependent manner
increase in the neutrophilic granulocyte content ([2]; 10-20 mg kg^-1 d^-1, within 2 d): up to twofold
iNAD^+ levels in PMNs ([2]; compared with steady-state levels): Increased
C/EBPα and C/EBPβ mRNA levels in bone marrow CD34^+ cells, CD33^+ cells and in peripheral blood PMNs ([2]; healthy individuals): upregulation
CD34^+ hematopoietic progenitor cells in peripheral blood ([2]; healthy individuals): mobilisation
Other blood cell lineages ([2]; healthy individuals): unaffected
decline of neutrophil numbers to the physiological level after discontinuation ([2]; healthy individuals): 2-3 d
time after initiation of treatment at which increased neutrophil numbers were detected ([2]; healthy individuals): 1 to 2 days
numbers of neutrophilic granulocytes ([2]; six healthy individuals, 10 mg per kg per d for 1 week): significant increases
adverse effects ([2]; treated healthy individuals): no adverse effects
side effects [3]: no side effects

O=C(/C=C/c1cccnc1)NCCCCC1CCN(C(=O)c2ccccc2)CC1 [FK866]
cell viability and proliferation (CD34^+ cells; 1 nM FK866): no effect
G-CSF induction of C/EBPα or C/EBPβ mRNA expression and G-CSFR mRNA or protein expression (CD34^+ cells; NAMPT activity inhibited with FK866): unable to induce
G-CSF or iNAD^+ levels in G-CSF- or NAMPT-stimulated cells (CD34^+ cells; cells pretreated with FK866): no increase
G-CSF-triggered granulocytic differentiation (CD34^+ cells; pretreatment with 1 nM FK866, then G-CSF): substantially abrogated

CC1=C(/C=C/C(C)=C/C=C/C(C)=C/C(=O)O)C(C)(C)CCC1 [ATRA, all-trans-retinoid acid]
myeloid (granulocytic) differentiation of HL-60 cells ([4]; 10 ng ml^-1 rhG-CSF, 10 ng ml^-1 rhNAMPT or 0.1µM ATRA, or lentiviral transduction): differentiates into granulocytes
levels of iNAD^+ as well as mRNAs of SIRT1, C/EBPα and C/EBPβ ([4]; compared with untreated controls): Elevated levels
